In PubChem BioAssay AID493130 (Broad Institute, 2011):
Results filed as inconclusive are left out. Calls of active or inactive are those of the source.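 How the source made its calls: active means signal-lowering compounds whose fitted half-maximal concentration is at most ten times their highest tested dose; inconclusive means flat fit between -30 and -70%, or poor fit; inactive means flat within 30%, signal rising, or potency beyond limit.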

What follows are compounds tested against POS-1 (Caenorhabditis elegans) binding to mex-3 RNA (assay: C. elegans POS-1 RNA interaction disruptors – biochemical, fluorescence polarization, cherry-picked samples, set 2, counter-screen for MEX-5 RNA-binding inhibitor project, dose response (AID 493130;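 further: POS-1 as maltose binding protein fusion made in E. coli with FITC RNA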)). Conditions: POS-1/mex-3 RNA fluorescence polarization, 1 h.
For `CN1CC=C2C(C#N)=C(N)C(C#N)(C#N)C(Cc3ccccc3)C2C1` (centres undefined), the AC50 was 6.58 µM.
`O=C1NC2=C(C(=O)CCC2)C(c2ccccc2[N+](=O)[O-])N1` (centres undefined) was tested, and the AC50 was > 10 µM (inactive).
For `CC1CCN(Cc2c(O)ccc3c2O/C(=C\c2ccco2)C3=O)CC1`, the AC50 was 3.53 µM.
`CC(=O)Nc1ccc(N2C(=O)c3cccc4c(O)ccc(c34)C2=O)cc1` showed an AC50 of 1.41 µM.
`Brc1ccc(C2=CC(c3cccs3)n3ncnc3N2)cc1` (centres undefined) gave an AC50 of 1.4 µM.

Same assay, conditions: POS-1/mex-3 RNA fluorescence polarization, 1 h; at 10 µM (top of the series)
`Cc1ccc(O)c(-c2cc(C(=O)Nc3ccc(S(=O)(=O)Nc4nc(C)cc(C)n4)cc3)[nH]n2)c1` was tested, and the “activity change, negative = inhibition” value was “inactive”.
In the case of `COc1ccccc1C(=O)NNC(=O)c1csc(N2CCOCC2)n1`, the “activity change, negative = inhibition” value is reported as “inactive”.
In the case of `O=C1/C(=C\c2ccc(Br)cc2)SC(=S)N1NS(=O)(=O)c1ccccc1`, the “activity change, negative = inhibition” value is reported as “inactive”.
`CCCCNc1c(N)n(CCCC)c(=O)[nH]c1=O` was tested, and the “activity change, negative = inhibition” value was “inactive”.
In the case of `COC(=O)c1cccc2nc3c(C(C)O)cccc3nc12` (centres undefined), the “activity change, negative = inhibition” value is reported as “inactive”.
For `CCCn1c(=N)c(C(=O)NC2CCCC2)cc2c(=O)n3cccc(C)c3nc21`, the “activity change, negative = inhibition” value was “inactive”.
For `CC1=NN(C(N)=S)C(=O)C1N=Nc1ccccc1C` (centres undefined), the “activity change, negative = inhibition” value was “inactive”.
In the case of `CCOC(=O)NC(=O)COC(=O)c1ccc(Sc2ncn[nH]2)c([N+](=O)[O-])c1`, the “activity change, negative = inhibition” value is reported as “inactive”.
In the case of `CC(C)c1ccc(N2C(=O)/C(=C/N(C)C)SC2=S)cc1`, the “activity change, negative = inhibition” value is reported as “inactive”.
In the case of `CC(=Nc1ccc(C)cc1C)c1sc2ccccc2c1O`, the “activity change, negative = inhibition” value is reported as “inactive”.
For `CCOC(=O)C(=NC(C)C)NNc1cc(Cl)ccc1Cl`, the “activity change, negative = inhibition” value was “inactive”.
In the case of `O=c1c2ccccc2nc(/C=C/c2ccc([N+](=O)[O-])cc2)n1CCCO`, the “activity change, negative = inhibition” value is reported as “inactive”.
`COc1ccc2cc3c(N)c(C(=O)NCc4ccco4)sc3nc2c1` was tested, and the “activity change, negative = inhibition” value was “inactive”.
With `COc1c(OC2OC(C(=O)O)C(O)C(O)C2O)cc(O)c2c(=O)cc(-c3ccccc3)oc12` (centres undefined) the “activity change, negative = inhibition” value was “inactive”.
In the case of `CC[n+]1c(/C=C/C=C/c2ccc(N(C)C)cc2)sc2ccccc21`, the “activity change, negative = inhibition” value is reported as “inactive”.
`O=C(O)c1ccc2c(c1)C(=O)/C(=C/c1ccccc1)C2=O` was tested, and the “activity change, negative = inhibition” value was “inactive”.
For `O=C(Nc1cccnc1)c1cccs1`, the “activity change, negative = inhibition” value was “inactive”.
In the case of `CCOC(=O)CC1=C(C(=O)OCC)C(c2ccc(OC)cc2OC)C(C#N)=C(N)O1` (centres undefined), the “activity change, negative = inhibition” value is reported as “inactive”.
In the case of `CC1CN2C(c3ccc(Cl)cc3)=CSC2=N1` (centres undefined), the “activity change, negative = inhibition” value is reported as “inactive”.
With `CCOC(=O)c1c(-c2ccccc2)oc2ccc(OCC(=O)NNC(=O)CCC(=O)O)cc12` the “activity change, negative = inhibition” value was “inactive”.
With `COc1cc(/C=C2\CCCc3c2nc2ccccc2c3C(=O)O)cc(OC)c1O` the “activity change, negative = inhibition” value was “inactive”.
With `FC(F)(F)c1nc2cc3nc4ccccc4[nH]c3cc2n1` the “activity change, negative = inhibition” value was “inactive”.
With `CCOC(=O)Cc1csc(NC(=O)c2sc3nc4ccc(CC)cc4cc3c2N)n1` the “activity change, negative = inhibition” value was “inactive”.
In the case of `O=S1(=O)c2ccccc2N=NN1Cc1ccc(Cl)c(Cl)c1`, the “activity change, negative = inhibition” value is reported as “inactive”.
`O=c1cc[nH]c2c1ccc1c(=O)cc[nH]c12` was tested, and the “activity change, negative = inhibition” value was “inactive”.
`Cc1cc2c(C)nc(N/N=C/c3ccc([N+](=O)[O-])cc3)nc2o1` was tested, and the “activity change, negative = inhibition” value was “inactive”.
In the case of `COc1cccc(NCc2cc(=O)oc3cc(C)c(O)cc23)c1`, the “activity change, negative = inhibition” value is reported as “inactive”.
For `CSCCCN1CCC(n2nccc2NC(=O)CCCc2ccccc2)CC1`, the “activity change, negative = inhibition” value was “inactive”.
For `Cc1ccc2c(c1)c(C1=NC(=S)NC1=O)c(O)n2C`, the “activity change, negative = inhibition” value was “inactive”.
